Experimental data from patent US20150182487A1, “COMPOSITION FOR PREVENTING AND TREATING INFLAMMATORY DISEASES AND IMMUNE DISEASES, CONTAINING APO-9`-FUCOXANTHINONE AS ACTIVE INGREDIENT” (JEJU NATIONAL UNIVERSITY INDUSTRY ACADEMIC COOPERATION …, priority 2012, published 2015).

Experiments:
NLRP3 inflammasome = biological target: T1, NLRP3 inflammasome (Mus musculus, UniProt Q8R4B8); assay: ELISA of IL-1β production induced by ATP in LPS primed BMDMs; type: cell-based; details: BMDMs primed with LPS 10 ng/ml 18 hours; compound 6.25, 12.5, 25, 50 μM 1 hour; ATP 5 mM 2 hours; FIG. 9 upper graph
T1 construct: checked a degree of IL-1β production induced by ATP in LPS primed BMDMs using ELISA; endogenous in cells; host or cells: bone marrow-derived macrophages (BMDM) from wild-type C57BL/6 mouse, LPS-primed and ATP-stimulated
Experimental: When LPS primed bone marrow-derived macrophages are treated with ATP, NLPR3 inflammasome is activated, and, thus, IL-1β is secreted. Therefore, in order to check whether the apo-9′-fucoxanthinone compound has an effect of inhibiting the NLRP3 inflammasome, the inventors of the present invention checked a degree of IL-1β production induced by ATP in LPS primed BMDMs using ELISA To do so, the bone marrow-derived macrophages cultured in the same manner as Example 2 were dispensed at 1×10^5 cells/0.5 ml in a 48-well plate, and these cells were treated with LPS at a concentration of 10 ng/ml for 18 hours. Then, the cells were treated with the apo-9′-fucoxanthinone compound at each concentration (0, 6.25, 12.5, 25, and 50 μM) for 1 hour. At 2 hours after treatment with ATP at a concentration of 5 mM, a cell culture medium was obtained and an expression amount of IL-1β was measured using ELISA (R&D system, MN, USA). Further, as a positive control group, a group treated with 10 μM parthenolide (described as “part” in the drawings) known as an NLRP3 inflammasome inhibitor was used.

[1] = tested on: IL-12 p40, IL-6, and TNF-α; assay: ELISA of pro-inflammatory cytokine production in CpG-ODN-stimulated bone marrow-derived dendritic cells; type: cell-based, mouse; details: compound 5, 10, 20, 50 μM for 1 hour before CpG-ODN (1 μM), FIG. 5
Experimental: (§1) Bone marrow-derived dendritic cells (BMDC) and macrophage (BMDM) were obtained from a wild-type C57BL/6 mouse. To be brief, bone marrow cells were obtained by flushing a tibia and femur of the mouse with DMEM (Dulbecco's modified Eagles medium). The cells were cultured in a medium RPMI 1640 including 10% heat-inactivated FBS (Gibco, NY, U.S.A.), 50 μM of β-mercapto ethanol, and 2 mM glutamine and supplemented with 3% hybridoma cell culture supernatant J558L containing granulocyte-macrophage colony-stimulating factor (GM-CSF) for BMDCs.
(§2) In order to check whether the Sargassum muticum extracts obtained in the present invention has an anti-inflammatory and an immunomodulatory activity, the following experiments were conducted with the Sargassum muticum extracts obtained in Example <1-1>. That is, bone marrow-derived macrophage and dendritic cells cultured as described above were seeded at 1×10^5 cells/0.5 ml in a 48-well plate. […] Supernatants were harvested 18 hour after stimulation. Amounts of IL-12 p40, IL-6, and TNF-α were measured using ELISA (BD PharMingen, CA, USA and R&D system, MN, USA). At this time, a non-treated group, a group treated with the extracts only, and a group treated with CpG-ODN only without treatment with the extracts were used as a control group. […]

[2] = tested on: IL-12 p40, IL-6, and TNF-α; assay: ELISA of pro-inflammatory cytokine production in CpG-ODN-stimulated bone marrow-derived macrophage; type: cell-based, mouse; details: compound 5, 10, 20, 50 μM for 1 hour before CpG-ODN (1 μM), FIG. 4
Experimental: as §1
Further, the obtained bone marrow cells were cultured in a DMEM including 20% heat-inactivated FBS, a 30% L929 cell culture supernatant containing a macrophage colony-stimulating factor, and 1% penicillin-streptomycin for BMDMs.
as §2, with “USA).” for “USA). At this time, a non-treated group, a group treated with the extracts only, and a group treated with CpG-ODN only without treatment with the extracts were used as a control group.”

IκBα = assay: Western blot of degradation and phosphorylation of IκBα in CpG-ODN-stimulated macrophages; type: cell-based, mouse; details: macrophages pre-treated at 20 μM for 1 hour before CpG-ODN; FIG. 6B
Experimental: (§3) In order to check whether the apo-9′-fucoxanthinone compound has an effect on activities of MAPK and NF-κB that are upstream signal transduction pathways for pro-inflammatory cytokine production, a Western blot analysis was conducted as follows. That is, the macrophages were dispensed to 60-mm culture dishes at 4×10^6 cells per dish, and then cultured for 24 hours at 37° C. The cells were pre-treated with the apo-9′-fucoxanthinone compound at a concentration of 20 μM for 1 hour before treatment with CpG-ODN. The cells were collected and dissolved using a lysis buffer (PRO-PREP Lysis buffer, iNtRON Biotechnology). Protein samples were electrophoresed in 10%-SDS PAGE, and then electrophoresed in a polyvinylidene fluoride membrane, and then treated and reacted with phospho-p44/42 (P-ERK p44/p42), phospho-p38 (P-p38), p38 MAPK, phospho-SAPK/JNK (P-JNK), phospho-IκBα, and IκBα (Cell Signaling Technology, MA, USA) as 1/1000 diluted primary antibodies. Thereafter, the membrane was washed and treated and reacted with horseradish peroxidase-linked anti-rabbit IgG (Cell Signaling Technology). Then, a signal was checked using a WEST-ZOL plus western blot detection system (iNtRON Biotechnology).

ERK1/2 (ERK p44/p42) = assay: Western blot of MAPK phosphorylation in CpG-ODN-stimulated macrophages; type: cell-based, mouse; details: macrophages pre-treated at 20 μM for 1 hour before CpG-ODN; FIG. 6A
Experimental: as §3

[3] = tested on: bone marrow-derived macrophages; assay: MTT assay of pyroptotic cell death of bone marrow-derived macrophages treated with LPS and ATP; type: cell-based, mouse; details: bone marrow-derived macrophages treated with both LPS and ATP; compound 6.25-50 μM; FIG. 9 lower graph
Experimental: When LPS primed bone marrow-derived macrophages are treated with ATP, NLPR3 inflammasome is activated, and, thus, IL-1β is secreted. Therefore, in order to check whether the apo-9′-fucoxanthinone compound has an effect of inhibiting the NLRP3 inflammasome, the inventors of the present invention checked a degree of IL-1β production induced by ATP in LPS primed BMDMs using ELISA To do so, the bone marrow-derived macrophages cultured in the same manner as Example 2 were dispensed at 1×10^5 cells/0.5 ml in a 48-well plate, and these cells were treated with LPS at a concentration of 10 ng/ml for 18 hours. Then, the cells were treated with the apo-9′-fucoxanthinone compound at each concentration (0, 6.25, 12.5, 25, and 50 μM) for 1 hour. At 2 hours after treatment with ATP at a concentration of 5 mM, a cell culture medium was obtained and an expression amount of IL-1β was measured using ELISA (R&D system, MN, USA). […]
That is, the cells treated as described above were treated with 0.2 mg of an MTT reagent and cultured at a temperature of 37° C. for 4 hours. After culture, the cells were collected and formazan crystals in each well were dissolved in 250 μl of DMSO, and then, an absorbance at 540 nm was measured to measure cell viability.

AP-1 = AP-1 reporter luciferase assay in TLR9-transfected HEK293T cells stimulated with CpG-ODN; type: cell-based; details: HEK293T cells transfected with murine TLR9-expressing plasmid; pre-treated 1 hour before CpG DNA (1 μM), 18 hour; FIG. 7
Experimental: It is known that activation of an MAPK signaling pathway activates a transcriptional factor AP-1, thereby increasing a DNA binding activity of AP-1 and expression of an AP-1-dependent gene. […] Firstly, HEK239T cells were plated in a 24-well plate and cultured overnight. Then, HEK293T cells were transfected with pcDNA3 (empty vector) or pcDNA3-mTLR9 that expresses murine TLR9, with an AP-1 reporter gene and pRLnull (Promega, WI, USA) using a Fugene 6 (Roche, UN, USA). Cells were then further incubated for 24 hour, and then pre-treated with the apo-9′-fucoxanthinone compound at each concentration as described in the above Examples for 1 hour before stimulation with CpG DNA (1 μM). After further incubation for 18 hour, the cells were lysed with a passive lysis buffer (Promega), and then analyzed using a dual luciferase reporter assay system (Promega). All of the experiments were repeated three times, and the results thereof were expressed in the fold increase.

T1 sequence (Q8R4B8 whole entry): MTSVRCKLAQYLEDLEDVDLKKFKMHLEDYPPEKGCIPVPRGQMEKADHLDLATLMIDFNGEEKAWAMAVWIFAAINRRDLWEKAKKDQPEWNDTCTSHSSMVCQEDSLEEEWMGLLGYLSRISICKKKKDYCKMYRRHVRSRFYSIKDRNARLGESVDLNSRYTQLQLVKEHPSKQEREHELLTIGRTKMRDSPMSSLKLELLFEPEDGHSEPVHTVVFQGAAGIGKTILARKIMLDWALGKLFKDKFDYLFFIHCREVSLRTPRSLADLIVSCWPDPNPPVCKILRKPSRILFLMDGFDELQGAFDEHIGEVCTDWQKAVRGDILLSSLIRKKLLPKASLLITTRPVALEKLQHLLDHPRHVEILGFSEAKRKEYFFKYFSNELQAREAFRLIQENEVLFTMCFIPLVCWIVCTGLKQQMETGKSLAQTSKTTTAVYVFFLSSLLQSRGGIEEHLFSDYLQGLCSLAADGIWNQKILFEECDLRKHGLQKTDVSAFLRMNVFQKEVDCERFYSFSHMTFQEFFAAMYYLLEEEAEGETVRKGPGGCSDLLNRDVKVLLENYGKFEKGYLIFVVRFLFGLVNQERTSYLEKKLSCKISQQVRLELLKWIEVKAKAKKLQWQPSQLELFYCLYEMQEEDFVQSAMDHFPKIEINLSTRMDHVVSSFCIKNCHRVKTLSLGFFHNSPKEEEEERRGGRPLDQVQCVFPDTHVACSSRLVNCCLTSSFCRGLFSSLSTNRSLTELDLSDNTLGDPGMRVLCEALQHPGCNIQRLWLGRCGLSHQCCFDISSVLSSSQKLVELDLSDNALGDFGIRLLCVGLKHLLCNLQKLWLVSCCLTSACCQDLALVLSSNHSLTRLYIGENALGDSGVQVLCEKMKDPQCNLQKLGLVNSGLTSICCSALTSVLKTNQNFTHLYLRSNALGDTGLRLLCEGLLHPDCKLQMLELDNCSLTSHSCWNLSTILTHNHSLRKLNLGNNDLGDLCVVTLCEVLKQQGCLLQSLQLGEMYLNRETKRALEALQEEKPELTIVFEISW

SMILES: CC(=O)C=C=C1C(C)(C)C[C@H](OC(C)=O)C[C@@]1(C)O [apo-9′-fucoxanthinone]
- production of IL-1β (NLRP3 inflammasome): effectively inhibited in a dose-dependent manner
- pro-inflammatory cytokine production (IL-12 p40, IL-6, TNF-α) [1]: effectively inhibiting
- pro-inflammatory cytokine production (IL-12 p40, IL-6, TNF-α) [2]: effectively inhibiting
- degradation and phosphorylation of IκBα (IκBα): did not greatly affect
- phosphorylation of ERK1/2 (ERK p44/p42) (ERK1/2 (ERK p44/p42)): strongly inhibited
- pyroptotic cell death (cell viability, MTT) [3]: inhibiting pyroptotic cell death
- AP-1-dependent luciferase activity (AP-1): decreased in a dose-dependent manner
